Experimental data from PubChem BioAssay AID1963446 (Molecular Pharmacology Branch, DTP, NCI, 2024).

Tested on: 993429-296-R-J1-PDC complex spheroid growth, percent test/control
Experiment: Anticancer human tumor 993429-296-R-J1-PDC patient-derived uterine sarcoma cell line growth inhibition [Asc]
Conditions: for IC50: curve of first compound; for viability, T/C: stronger effect = lower value
Procedure, shortened: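 Complex solid-tumor spheroids incorporating human endothelial and mesenchymal stem cells received single agents or combinations over half-log dilution ranges anchored to clinical Cmax.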

[1] = second compound 0.03 µM, first compound 0.00316 µM
[2] = second compound 0.03 µM, first compound 0.01 µM
[3] = second compound 0.03 µM, first compound 0.0316 µM
[4] = second compound 0.03 µM, first compound 0.1 µM
[5] = second compound 0.0949 µM, first compound 0.00316 µM
[6] = second compound 0.0949 µM, first compound 0.01 µM
[7] = second compound 0.0949 µM, first compound 0.0316 µM
[8] = second compound 0.0949 µM, first compound 0.1 µM
[9] = second compound 0.3 µM, first compound 0.00316 µM
[10] = second compound 0.3 µM, first compound 0.01 µM
[11] = second compound 0.3 µM, first compound 0.0316 µM
[12] = second compound 0.3 µM, first compound 0.1 µM
[13] = second compound 0.949 µM, first compound 0.00316 µM
[14] = second compound 0.949 µM, first compound 0.01 µM
[15] = second compound 0.949 µM, first compound 0.0316 µM
[16] = second compound 0.949 µM, first compound 0.1 µM
[17] = second compound 3 µM, first compound 0.00316 µM
[18] = second compound 3 µM, first compound 0.01 µM
[19] = second compound 3 µM, first compound 0.0316 µM
[20] = second compound 3 µM, first compound 0.1 µM
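Also: spheroids exposed to compounds for seven days.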

With `NC(=O)C(=Cn1cnc(-c2cc(C(F)(F)F)cc(C(F)(F)F)c2)n1)c1cncnc1` + CCN1C(C(=O)NC23CCC(C(=O)O)(CC2)CC3)C(c2cccc(Cl)c2F)C2(C(=O)Nc3cc(Cl)ccc32)C12CCCCC2 the IC50 (second compound 0.03 µM) was 18.6 nM, the IC50 (second compound 0.0949 µM) was 15.5 nM and the IC50 (second compound 0.3 µM) was 14 nM. The IC50 (second compound 0.949 µM) was 20.3 nM, the IC50 (second compound 3 µM) was 13.3 nM and the viability, T/C (second compound 0.03 µM, first compound 0.000949 µM) was 98%. For the same compound, the viability, T/C (second compound 0.03 µM, first compound 0.003 µM) was 97.9%, the viability, T/C (second compound 0.03 µM, first compound 0.00949 µM) was 71% and the viability, T/C (second compound 0.03 µM, first compound 0.03 µM) was 34%. The viability, T/C (second compound 0.03 µM, first compound 0.0949 µM) was 17.8%, the viability, T/C (second compound 0.03 µM, first compound 0.3 µM) was 9.36% and the viability, T/C (second compound 0.0949 µM, first compound 0.000949 µM) was 95.3%. For the same compound, the viability, T/C (second compound 0.0949 µM, first compound 0.003 µM) was 87%, the viability, T/C (second compound 0.0949 µM, first compound 0.00949 µM) was 63.4% and the viability, T/C (second compound 0.0949 µM, first compound 0.03 µM) was 31.9%. The viability, T/C (second compound 0.0949 µM, first compound 0.0949 µM) was 14.9%, the viability, T/C (second compound 0.0949 µM, first compound 0.3 µM) was 8.83% and the viability, T/C (second compound 0.3 µM, first compound 0.000949 µM) was 89.3%. For the same compound, the viability, T/C (second compound 0.3 µM, first compound 0.003 µM) was 85.6%, the viability, T/C (second compound 0.3 µM, first compound 0.00949 µM) was 55.4% and the viability, T/C (second compound 0.3 µM, first compound 0.03 µM) was 33.4%. For the same compound, the viability, T/C (second compound 0.3 µM, first compound 0.0949 µM) was 19.7%, the viability, T/C (second compound 0.3 µM, first compound 0.3 µM) was 9.08% and the viability, T/C (second compound 0.949 µM, first compound 0.000949 µM) was 83%. For the same compound, the viability, T/C (second compound 0.949 µM, first compound 0.003 µM) was 90%, the viability, T/C (second compound 0.949 µM, first compound 0.00949 µM) was 83.3% and the viability, T/C (second compound 0.949 µM, first compound 0.03 µM) was 33%. The viability, T/C (second compound 0.949 µM, first compound 0.0949 µM) was 14%, the viability, T/C (second compound 0.949 µM, first compound 0.3 µM) was 7.67% and the viability, T/C (second compound 3 µM, first compound 0.000949 µM) was 81.7%. For the same compound, the viability, T/C (second compound 3 µM, first compound 0.003 µM) was 87.5%, the viability, T/C (second compound 3 µM, first compound 0.00949 µM) was 55.4% and the viability, T/C (second compound 3 µM, first compound 0.03 µM) was 29.8%. The viability, T/C (second compound 3 µM, first compound 0.0949 µM) was 13% and the viability, T/C (second compound 3 µM, first compound 0.3 µM) was 8.21%.

`NC(=O)C(=Cn1cnc(-c2cc(C(F)(F)F)cc(C(F)(F)F)c2)n1)c1cncnc1` + Cc1c(S(C)(=O)=O)c(-c2cc(F)cc(N3CCN(c4ccc(NS(=O)(=O)c5ccc(NC(CCN6CCC(C(=O)OCCCP(=O)(O)O)CC6)CSc6ccccc6)c(S(=O)(=O)C(F)(F)F)c5)cc4)CC3)c2)c(-c2ccc(Cl)cc2)n1C(C)C gave an IC50 (second compound 0.1 µM) of 7.94 nM, an IC50 (second compound 0.316 µM) of 5.62 nM and an IC50 (second compound 1 µM) of under 0.949 nM. It also gave an IC50 (second compound 3.16 µM) of 0.989 nM, an IC50 (second compound 10 µM) of 9.35 nM and a viability, T/C (second compound 0.1 µM, first compound 0.000949 µM) of 79.2%. It also gave a viability, T/C (second compound 0.1 µM, first compound 0.003 µM) of 63%, a viability, T/C (second compound 0.1 µM, first compound 0.00949 µM) of 50.8% and a viability, T/C (second compound 0.1 µM, first compound 0.03 µM) of 17.5%. The viability, T/C (second compound 0.1 µM, first compound 0.0949 µM) was 5.75%, the viability, T/C (second compound 0.1 µM, first compound 0.3 µM) was 1.24% and the viability, T/C (second compound 0.316 µM, first compound 0.000949 µM) was 67%. The viability, T/C (second compound 0.316 µM, first compound 0.003 µM) was 59.9%, the viability, T/C (second compound 0.316 µM, first compound 0.00949 µM) was 41.4% and the viability, T/C (second compound 0.316 µM, first compound 0.03 µM) was 13.1%. The viability, T/C (second compound 0.316 µM, first compound 0.0949 µM) was 2.18%, the viability, T/C (second compound 0.316 µM, first compound 0.3 µM) was 0.54% and the viability, T/C (second compound 1 µM, first compound 0.000949 µM) was 48.8%. The viability, T/C (second compound 1 µM, first compound 0.003 µM) was 48.6%, the viability, T/C (second compound 1 µM, first compound 0.00949 µM) was 32.4% and the viability, T/C (second compound 1 µM, first compound 0.03 µM) was 9.81%. It also gave a viability, T/C (second compound 1 µM, first compound 0.0949 µM) of 1.61%, a viability, T/C (second compound 1 µM, first compound 0.3 µM) of 0.15% and a viability, T/C (second compound 3.16 µM, first compound 0.000949 µM) of 50.8%. The viability, T/C (second compound 3.16 µM, first compound 0.003 µM) was 35.8%, the viability, T/C (second compound 3.16 µM, first compound 0.00949 µM) was 24.6% and the viability, T/C (second compound 3.16 µM, first compound 0.03 µM) was 11.9%. The viability, T/C (second compound 3.16 µM, first compound 0.0949 µM) was 2.12%, the viability, T/C (second compound 3.16 µM, first compound 0.3 µM) was 0.26% and the viability, T/C (second compound 10 µM, first compound 0.000949 µM) was 75.6%. The viability, T/C (second compound 10 µM, first compound 0.003 µM) was 71.1%, the viability, T/C (second compound 10 µM, first compound 0.00949 µM) was 49.9% and the viability, T/C (second compound 10 µM, first compound 0.03 µM) was 13.7%. The viability, T/C (second compound 10 µM, first compound 0.0949 µM) was 1.63% and the viability, T/C (second compound 10 µM, first compound 0.3 µM) was 0.26%.

`CCN1CCN(Cc2ccc(Nc3ncc(F)c(-c4cc(F)c5nc(C)n(C(C)C)c5c4)n3)nc2)CC1` + CCN1C(C(=O)NC23CCC(C(=O)O)(CC2)CC3)C(c2cccc(Cl)c2F)C2(C(=O)Nc3cc(Cl)ccc32)C12CCCCC2 showed an IC50 (second compound 0.03 µM) of over 1000 nM, an IC50 (second compound 0.0949 µM) of over 1000 nM and an IC50 (second compound 0.3 µM) of over 1000 nM. It also gave an IC50 (second compound 0.949 µM) of over 1000 nM, an IC50 (second compound 3 µM) of over 1000 nM and a viability, T/C [1] of 101%. For the same compound, the viability, T/C [2] was 98.5%, the viability, T/C [3] was 102% and the viability, T/C [4] was 110%. For the same compound, the viability, T/C (second compound 0.03 µM, first compound 0.316 µM) was 103%, the viability, T/C (second compound 0.03 µM, first compound 1 µM) was 125% and the viability, T/C [5] was 99.8%. It also gave a viability, T/C [6] of 107%, a viability, T/C [7] of 97.3% and a viability, T/C [8] of 95.5%. It also gave a viability, T/C (second compound 0.0949 µM, first compound 0.316 µM) of 110%, a viability, T/C (second compound 0.0949 µM, first compound 1 µM) of 98.3% and a viability, T/C [9] of 102%. For the same compound, the viability, T/C [10] was 105%, the viability, T/C [11] was 89.5% and the viability, T/C [12] was 109%. It also gave a viability, T/C (second compound 0.3 µM, first compound 0.316 µM) of 120%, a viability, T/C (second compound 0.3 µM, first compound 1 µM) of 104% and a viability, T/C [13] of 103%. The viability, T/C [14] was 99.5%, the viability, T/C [15] was 106% and the viability, T/C [16] was 99.9%. It also gave a viability, T/C (second compound 0.949 µM, first compound 0.316 µM) of 107%, a viability, T/C (second compound 0.949 µM, first compound 1 µM) of 131% and a viability, T/C [17] of 97.2%. The viability, T/C [18] was 92.9%, the viability, T/C [19] was 99.7% and the viability, T/C [20] was 77.8%. The viability, T/C (second compound 3 µM, first compound 0.316 µM) was 84.5% and the viability, T/C (second compound 3 µM, first compound 1 µM) was 115%.

Compound `NC1CCC(NC2CC2c2ccccc2)CC1` (stereo not given) + CCN1C(C(=O)NC23CCC(C(=O)O)(CC2)CC3)C(c2cccc(Cl)c2F)C2(C(=O)Nc3cc(Cl)ccc32)C12CCCCC2 has an IC50 (second compound 0.03 µM) of over 100 nM, an IC50 (second compound 0.0949 µM) of over 100 nM and an IC50 (second compound 0.3 µM) of over 100 nM. It also gave an IC50 (second compound 0.949 µM) of over 100 nM, an IC50 (second compound 3 µM) of over 100 nM and a viability, T/C (second compound 0.03 µM, first compound 0.000316 µM) of 76.4%. It also gave a viability, T/C (second compound 0.03 µM, first compound 0.001 µM) of 75.4%, a viability, T/C [1] of 80.2% and a viability, T/C [2] of 77.8%. For the same compound, the viability, T/C [3] was 81.4%, the viability, T/C [4] was 91.8% and the viability, T/C (second compound 0.0949 µM, first compound 0.000316 µM) was 91.1%. The viability, T/C (second compound 0.0949 µM, first compound 0.001 µM) was 77.5%, the viability, T/C [5] was 74.7% and the viability, T/C [6] was 66.8%. The viability, T/C [7] was 93%, the viability, T/C [8] was 81.5% and the viability, T/C (second compound 0.3 µM, first compound 0.000316 µM) was 98.2%. The viability, T/C (second compound 0.3 µM, first compound 0.001 µM) was 74.7%, the viability, T/C [9] was 69% and the viability, T/C [10] was 80.2%. For the same compound, the viability, T/C [11] was 69.3%, the viability, T/C [12] was 83.8% and the viability, T/C (second compound 0.949 µM, first compound 0.000316 µM) was 72%. It also gave a viability, T/C (second compound 0.949 µM, first compound 0.001 µM) of 76.9%, a viability, T/C [13] of 83.1% and a viability, T/C [14] of 83.2%. It also gave a viability, T/C [15] of 76.6%, a viability, T/C [16] of 88.9% and a viability, T/C (second compound 3 µM, first compound 0.000316 µM) of 75.2%. For the same compound, the viability, T/C (second compound 3 µM, first compound 0.001 µM) was 85.6%, the viability, T/C [17] was 79.7% and the viability, T/C [18] was 74.1%. For the same compound, the viability, T/C [19] was 70.3% and the viability, T/C [20] was 71%.
